Biological target: prostaglandin synthetase (Ovis aries, UniProt P05979)
Assay: Prostaglandin synthetase inhibition, sheep vesicular gland microsomal preparation (oxygen electrode)
Type: biochemical
Details: sheep vesicular gland microsomes; 0.1 M Tris HCl pH 8.0; inhibitor added 1 minute before arachidonate; read-out: [I]50, concentration of an inhibitor that reduced prostaglandin synthesis by 50%
Protocol: Prostaglandin synthetase activity was determined by following oxygen tension in a closed reaction chamber using a Clark-type oxygen electrode. For each assay 2.9 ml of 0.1 M Tris HCl buffer, pH 8.0, 10 ul of 0.2 M phenol, and 50 ul of enzyme suspension (2.5 mg microsomal preparation) were added to the reaction chamber. Ten ul of inhibitor in ethanol was added 1 minute prior to initiation of the reaction. The reaction was initiated by addition of 10 ul of 3.6 mM arachidonate solution. The concentration of an inhibitor that reduced prostaglandin synthesis by 50% ([I]50) was determined from plots of activity vs log concentration of inhibitor.

Sequence of prostaglandin synthetase (P05979 25-600): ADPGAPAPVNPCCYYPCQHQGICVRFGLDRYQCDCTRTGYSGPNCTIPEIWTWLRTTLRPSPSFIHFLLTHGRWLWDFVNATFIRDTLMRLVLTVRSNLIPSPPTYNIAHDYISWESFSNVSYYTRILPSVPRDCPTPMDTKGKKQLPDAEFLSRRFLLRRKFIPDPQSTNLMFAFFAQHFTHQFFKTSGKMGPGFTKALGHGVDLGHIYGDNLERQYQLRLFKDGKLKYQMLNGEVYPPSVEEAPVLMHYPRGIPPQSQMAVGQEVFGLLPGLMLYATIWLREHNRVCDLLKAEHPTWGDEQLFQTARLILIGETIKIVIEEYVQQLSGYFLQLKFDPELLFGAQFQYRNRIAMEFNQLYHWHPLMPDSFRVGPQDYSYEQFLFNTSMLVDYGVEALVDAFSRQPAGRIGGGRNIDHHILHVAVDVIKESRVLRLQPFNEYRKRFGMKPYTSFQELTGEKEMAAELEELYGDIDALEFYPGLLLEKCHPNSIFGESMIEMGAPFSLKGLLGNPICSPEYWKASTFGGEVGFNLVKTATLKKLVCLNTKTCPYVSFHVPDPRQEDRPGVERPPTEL

Compound: O=C(c1ccccc1)c1ccccc1O [2-hydroxybenzophenone]
- IC50: 3.8 µM
